Assays:
[1] = unusually high doses given to dogs; cited from earlier work
[2] = test system: experimental thrombosis (stasis or thrombin injection), endotoxin shock, DIC; details: cited from earlier work
[3] = test system: other proteinases of the clotting cascade; details: completely specific for thrombin; cited from earlier work
thrombin [4] = biological target: T1, thrombin (Homo sapiens, UniProt P00734); assay: inhibition of thrombin with chromogenic substrate Chromozym TH; type: biochemical; details: starting material of Example 1
Procedure: The biological activity is determined from the inhibition of thrombin, whose enzymatic activity is in turn determined using the chromogenic substrate Chromozym TH (a product of Boehringer, Mannheim, West Germany, for thrombin and hirudin determination) in accordance with known directions supplied with the test preparation.

thrombin [5] = biological target: T1, thrombin; details: thrombin inhibitor; cited from earlier work

For Hirudin, the “effect on heart rate, respiration, blood pressure, thrombocytes, fibrinogen and haemoglobin” value [1] is listed as “No effect”, the “efficacy in experimental thrombosis, endotoxin shock and DIC” value ([2]; rats, pigs, dogs, thrombosis induced by stasis or thrombin injection) is listed as “proved effective” and the “direct comparison with heparin” value ([2]; whenever direct comparison tests were carried out) is listed as “superior to heparin”. The “inhibition of other proteinases of the clotting cascade” value [3] was “does not inhibit”, the “activity (inhibition of thrombin)” value (thrombin [4]) was 630 IU/mg and the Ki (thrombin [5]) was about 0.06 nM.

Reference: US4745177A, “Desulfatohirudins, the preparation thereof and pharmaceutical compositions containing them” (Ciba-Geigy Corporation, priority 1983, dated 1988)
